Test results published in patent publication US6534496B1, “Thermogenic composition and benzazepine thermogenics” (Takeda Chemical Industries, Inc., priority 1997, dated 2003).
Counter-ions that a name gives are not always drawn.

Q: For `Cl.Cl.O=C(CC1CCN(Cc2ccc(F)cc2)CC1)c1ccc2c(c1)CCN(Cc1ccccc1)CC2`, which melting point is on record?
A: Its melting point is 243 to 247 °C (dec.).

Q: Which melting point does the source give for `Cl.Cl.O=C(CCCC1CCN(Cc2ccccc2)CC1)c1ccc2c(c1)CCN(Cc1ccccc1)CC2` here?
A: The melting point was 220 to 222 °C (dec.).

Q: For `Cl.Cl.O=C(CCCC1CCN(Cc2ccc(F)cc2)CC1)c1ccc2c(c1)CCN(Cc1ccccc1)CC2`, which melting point is on record?
A: Its melting point is 226 to 229 °C (dec.).

Q: Which melting point does the source give for `Cc1ccc(CN2CCC(CC(=O)c3ccc4c(c3)CCN(Cc3ccccc3)CC4)CC2)cc1.Cl.Cl` here?
A: The melting point was 229 to 233 °C.

Q: For `Cc1ccccc1CN1CCC(CCCC(=O)c2ccc3c(c2)CCN(Cc2ccccc2)CC3)CC1.Cl.Cl`, which melting point is on record?
A: Its melting point is 226 to 229 °C (dec.).

Q: With `Cc1cccc(CN2CCC(CCCC(=O)c3ccc4c(c3)CCN(Cc3ccccc3)CC4)CC2)c1.Cl.Cl` as the compound, how does the melting point read?
A: The melting point was 222 to 225 °C (dec.).

Q: Which melting point does the source give for `Cc1ccc(CN2CCC(CCCC(=O)c3ccc4c(c3)CCN(Cc3ccccc3)CC4)CC2)cc1.Cl.Cl` here?
A: The melting point was 207 to 210 °C (dec.).

Q: For `Cc1ccccc1CN1CCc2ccc(C(=O)CCCC3CCN(Cc4ccc(F)cc4)CC3)cc2CC1.Cl.Cl`, which melting point is on record?
A: The melting point was 197 to 200 °C.

Q: With `Cc1ccc(CN2CCC(CCCC(=O)c3ccc4c(c3)CCN(Cc3ccc([N+](=O)[O-])cc3)CC4)CC2)cc1.Cl.Cl` as the compound, how does the melting point read?
A: The melting point was 208 to 211 °C.

Q: Which melting point does the source give for `Cc1ccc(CN2CCC(CCCC(=O)c3ccc4c(c3)CCN(Cc3ccc(C#N)cc3)CC4)CC2)cc1.Cl.Cl` here?
A: The melting point was 206 to 209 °C (dec.).

Q: For `CC(=O)N1CCc2ccc(C(=O)CCCC3CCN(Cc4ccccc4C)CC3)cc2CC1.Cl`, which melting point is on record?
A: Its melting point is 93 to 94 °C.

Q: Which melting point does the source give for `Cl.O=C(CCC1CCN(C(=O)c2ccccc2)CC1)c1ccc2c(c1)CCN(Cc1ccccc1)CC2` here?
A: The melting point was 118 to 121 °C.

Q: Which melting point does the source give for `COc1ccc(CN2CCc3cc(C(=O)CCC4CCN(Cc5ccccc5)CC4)ccc32)cc1.O=C(O)/C=C/C(=O)O` here?
A: The melting point was 95 to 98 °C.

Q: With `CC(=O)N1CCC(CCC(=O)c2ccc3c(c2)CN(Cc2ccccc2)c2ccccc2CC3)CC1.Cl` as the compound, how does the melting point read?
A: Its melting point is 155 to 158 °C.

Q: With `CC(=O)N1CCC(CCC(=O)c2ccc3c(c2)CN(Cc2ccc(F)cc2)CCO3)CC1.Cl` as the compound, how does the melting point read?
A: The melting point was 186 to 188 °C.

Q: Which melting point does the source give for `COc1ccc(CN2CCc3ccc(C(=O)CCC4CCN(C(=O)c5ccc(-c6ccccc6)cc5)CC4)cc3CC2)cc1.Cl` here?
A: The melting point was 212 to 215 °C.

Q: With `O=C(CCC1CCN(Cc2cccnc2)CC1)c1ccc2c(c1)CN(Cc1ccccc1)CCO2` (as salt: hydrochloride) as the compound, how does the melting point read?
A: Its melting point is 228 to 230 °C.

Q: Which melting point does the source give for `CCOC(=O)C1(C(=O)OCC)Oc2ccc(CN3CCC(CCC(=O)c4ccc5c(c4)CN(Cc4ccc(F)cc4)CCO5)CC3)cc2O1` (as salt: hydrochloride) here?
A: Its melting point is 199 °C (dec.).

Q: With `O=C(O)COc1cccc(CN2CCC(CCC(=O)c3ccc4c(c3)CN(Cc3ccc(F)cc3)CCO4)CC2)c1` (as salt: hydrochloride) as the compound, how does the melting point read?
A: The melting point was 201 to 204 °C.

Q: With `CC(c1ccccc1)N1CCC(CCC(=O)c2ccc3c(c2)CN(Cc2ccc(F)cc2)CCO3)CC1` (stereo not drawn) (as salt: hydrochloride) as the compound, how does the melting point read?
A: Its melting point is 235 to 237 °C.

Q: With `O=C(CCC1CCN(Cc2ccncc2)CC1)c1ccc2c(c1)CN(Cc1ccccc1)CCO2` (as salt: hydrochloride) as the compound, how does the melting point read?
A: The melting point was 243 to 245 °C.

Q: Which melting point does the source give for `Cc1cccc(CN2CCC(CCCC(=O)c3ccc4c(c3)CCN(Cc3ccccc3C)CC4)CC2)c1` (as salt: hydrochloride) here?
A: The melting point was 179 to 182 °C.

Q: Which melting point does the source give for `O=C(CCC1CCN(Cc2cccc(C(F)(F)F)c2)CC1)c1ccc2c(c1)CN(Cc1ccccc1)CCO2` (as salt: hydrochloride) here?
A: Its melting point is 235 to 237 °C.

Q: With `O=C(CCC1CCN(Cc2ccc(C(F)(F)F)cc2)CC1)c1ccc2c(c1)CN(Cc1ccccc1)CCO2` (as salt: hydrochloride) as the compound, how does the melting point read?
A: Its melting point is 239 to 241 °C.

Q: For `Cc1ccccc1CN1CCc2ccc(C(=O)CCCC3CCN(Cc4ccccc4Cl)CC3)cc2CC1` (as salt: hydrochloride), which melting point is on record?
A: Its melting point is 165 to 168 °C.

Q: For `O=C(CCC1CCN(Cc2ccc3c(c2)OCO3)CC1)c1ccc2c(c1)CN(Cc1ccccc1)CCO2` (as salt: hydrochloride), which melting point is on record?
A: Its melting point is 233 to 235 °C.

Q: For `O=C(CCCC1CCN(Cc2cccc(Cl)c2)CC1)c1ccc2c(c1)CCN(Cc1ccccc1)CC2` (as salt: hydrochloride), which melting point is on record?
A: Its melting point is 230 to 234 °C (dec.).

Q: For `O=C(CCCC1CCN(Cc2cccc(F)c2)CC1)c1ccc2c(c1)CCN(Cc1ccccc1)CC2` (as salt: hydrochloride), which melting point is on record?
A: Its melting point is 245 to 248 °C (dec.).

Q: Which melting point does the source give for `O=C(CCCC1CCN(Cc2ccc([N+](=O)[O-])cc2)CC1)c1ccc2c(c1)CCN(Cc1ccccc1)CC2` (as salt: hydrochloride) here?
A: Its melting point is 242 to 247 °C (dec.).

Q: With `O=C(CCC1CCN(Cc2cc([N+](=O)[O-])cc([N+](=O)[O-])c2)CC1)c1ccc2c(c1)CN(Cc1ccccc1)CCO2` (as salt: hydrochloride) as the compound, how does the melting point read?
A: Its melting point is 232 °C (dec.).

Q: Which melting point does the source give for `O=C(CCC1CCN(Cc2cc(F)cc(F)c2)CC1)c1ccc2c(c1)CN(Cc1ccccc1)CCO2` (as salt: hydrochloride) here?
A: Its melting point is 241 to 243 °C.

Q: For `COC(=O)c1ccc(CN2CCC(CCCC(=O)c3ccc4c(c3)CCN(Cc3ccccc3)CC4)CC2)cc1` (as salt: hydrochloride), which melting point is on record?
A: Its melting point is 239 to 244 °C (dec.).

Q: For `CS(=O)(=O)Nc1cccc(CN2CCC(CCCC(=O)c3ccc4c(c3)CCN(Cc3ccccc3)CC4)CC2)c1` (as salt: hydrochloride), which melting point is on record?
A: The melting point was 158 to 164 °C.

Q: Which melting point does the source give for `Cc1cccc(CN2CCc3ccc(C(=O)CCCC4CCN(Cc5ccc(F)cc5)CC4)cc3CC2)c1` (as salt: hydrochloride) here?
A: Its melting point is 209 to 212 °C.

Q: Which melting point does the source give for `Cc1ccc(CN2CCC(CCCC(=O)c3ccc4c(c3)CCN(Cc3cccc([N+](=O)[O-])c3)CC4)CC2)cc1` (as salt: hydrochloride) here?
A: The melting point was 172 to 174 °C.

Q: For `Cc1ccc(CN2CCC(CCCC(=O)c3ccc4c(c3)CCN(Cc3ccccc3Cl)CC4)CC2)cc1` (as salt: hydrochloride), which melting point is on record?
A: Its melting point is 174 to 178 °C.

Q: With `Cc1ccc(CN2CCC(CCCC(=O)c3ccc4c(c3)CCN(Cc3ccc(Cl)cc3)CC4)CC2)cc1` (as salt: hydrochloride) as the compound, how does the melting point read?
A: Its melting point is 230 to 234 °C.

Q: With `O=C(CCC1CCNCC1)c1ccc2c(c1)CN(Cc1ccc(F)cc1)CCC2` (as salt: hydrochloride) as the compound, how does the melting point read?
A: The melting point was 245 to 247 °C.

Q: For `O=C(CCC1CCN(Cc2cccc(C(F)(F)F)c2)CC1)c1ccc2c(c1)CN(Cc1ccc(F)cc1)CCC2` (as salt: hydrochloride), which melting point is on record?
A: The melting point was 197 to 199 °C.

Q: Which melting point does the source give for `COC(=O)c1ccccc1CN1CCc2ccc(C(=O)CCCC3CCN(Cc4ccccc4C)CC3)cc2CC1` (as salt: hydrochloride) here?
A: The melting point was 111 to 113 °C.

Q: For `O=C(CCCC1CCN(Cc2ccccc2Cl)CC1)c1ccc2c(c1)CCN(Cc1ccc(F)cc1F)CC2` (as salt: hydrochloride), which melting point is on record?
A: The melting point was 193 to 196 °C.

Q: With `Cc1ccccc1CN1CCC(CCCC(=O)c2ccc3c(c2)CCN(Cc2ccc(F)cc2F)CC3)CC1` (as salt: hydrochloride) as the compound, how does the melting point read?
A: The melting point was 208 to 210 °C.

Q: Which melting point does the source give for `CC(=O)Nc1ccccc1CN1CCC(CCCC(=O)c2ccc3c(c2)CCN(Cc2ccccc2C)CC3)CC1` (as salt: hydrochloride) here?
A: Its melting point is 172 to 178 °C.

Q: With `Cc1ccccc1CN1CCc2ccc(C(=O)CCCC3CCN(Cc4ccccc4N)CC3)cc2CC1` (as salt: hydrochloride) as the compound, how does the melting point read?
A: Its melting point is 230 to 235 °C.

Q: Which melting point does the source give for `Cc1ccccc1CN1CCc2ccc(C(=O)CCCC3CCN(Cc4ccccc4NS(C)(=O)=O)CC3)cc2CC1` (as salt: hydrochloride) here?
A: The melting point was 185 to 195 °C (dec.).

Q: With `COC(=O)c1ccccc1CN1CCC(CCCC(=O)c2ccc3c(c2)CCN(Cc2ccccc2C)CC3)CC1` (as salt: hydrochloride) as the compound, how does the melting point read?
A: The melting point was 189 to 192 °C.

Q: Which melting point does the source give for `O=C(CCC1CCNCC1)c1ccc2c(c1)CCN(Cc1ccc(F)cc1)CC2` (as salt: hydrochloride) here?
A: The melting point was 225 to 227 °C (dec.).

Q: With `COc1ccc(CN2CCC(CCC(=O)c3ccc4c(c3)CCN(Cc3ccc(F)cc3)CC4)CC2)cc1` (as salt: hydrochloride) as the compound, how does the melting point read?
A: The melting point was 235 to 238 °C (dec.).

Q: With `COc1ccc(CN2CCC(CCC(=O)c3ccc4c(c3)CCN(Cc3ccc(F)cc3)CC4)CC2)cc1OC` (as salt: hydrochloride) as the compound, how does the melting point read?
A: The melting point was 199 to 203 °C.

Q: For `O=C(CCC1CCN(Cc2ccccc2)CC1)c1ccc2c(c1)CCN(Cc1ccc(F)cc1)CC2` (as salt: hydrochloride), which melting point is on record?
A: The melting point was 217 to 220 °C.

Q: Which melting point does the source give for `CC(C)(C)c1ccc(CN2CCC(CCC(=O)c3ccc4c(c3)CCN(Cc3ccc(F)cc3)CC4)CC2)cc1` (as salt: hydrochloride) here?
A: Its melting point is 230 to 236 °C (dec.).

Q: With `CCOC(=O)c1ccc(CN2CCC(CCC(=O)c3ccc4c(c3)CCN(Cc3ccc(F)cc3)CC4)CC2)cc1` (as salt: hydrochloride) as the compound, how does the melting point read?
A: Its melting point is 212 to 218 °C (dec.).

Q: Which melting point does the source give for `Cc1ccc(CN2CCC(CCC(=O)c3ccc4c(c3)CN(Cc3ccccc3)CCO4)CC2)cc1` (as salt: hydrochloride) here?
A: Its melting point is 236 to 238 °C.

Q: For `O=C(CCC1CCN(Cc2ccc(O)cc2)CC1)c1ccc2c(c1)CCN(Cc1ccc(F)cc1)CC2` (as salt: hydrochloride), which melting point is on record?
A: The melting point was 166 to 169 °C.

Q: For `O=C(CCC1CCN(Cc2ccccc2F)CC1)c1ccc2c(c1)CN(Cc1ccccc1)CCO2` (as salt: hydrochloride), which melting point is on record?
A: Its melting point is 242 to 244 °C.

Q: For `O=C(CCC1CCN(Cc2cccc(F)c2)CC1)c1ccc2c(c1)CN(Cc1ccccc1)CCO2` (as salt: hydrochloride), which melting point is on record?
A: The melting point was 241 to 243 °C.

Q: For `O=C(CCC1CCN(Cc2cccc(C(F)(F)F)c2)CC1)c1ccc2c(c1)CN(Cc1ccc(F)cc1)CCO2` (as salt: hydrochloride), which melting point is on record?
A: The melting point was 225 to 227 °C.

Q: For `O=C(CCC1CCN(Cc2ccccc2Cl)CC1)c1ccc2c(c1)CN(Cc1ccc(F)cc1)CCO2` (as salt: hydrochloride), which melting point is on record?
A: The melting point was 227 to 229 °C.

Q: With `O=C(CCC1CCN(Cc2ccccc2C(F)(F)F)CC1)c1ccc2c(c1)CN(Cc1ccc(F)cc1)CCO2` (as salt: hydrochloride) as the compound, how does the melting point read?
A: The melting point was 203 to 204 °C.

Q: Which melting point does the source give for `Cc1ccc(CN2CCC(CCC(=O)c3ccc4c(c3)CN(Cc3ccc(F)cc3)CCO4)CC2)cc1` (as salt: hydrochloride) here?
A: Its melting point is 240 to 242 °C.

Q: With `O=C(CCC1CCN(Cc2ccccn2)CC1)c1ccc2c(c1)CN(Cc1ccccc1)CCO2` (as salt: hydrochloride) as the compound, how does the melting point read?
A: Its melting point is 238 to 240 °C.

Q: With `COc1ccc(CN2CCc3ccc(C(=O)CCC4CCN(Cc5ccc(F)cc5)CC4)cc3CC2)cc1` (as salt: hydrochloride) as the compound, how does the melting point read?
A: The melting point was 218 to 226 °C (dec.).

Q: For `COc1ccc(CN2CCc3ccc(C(=O)CCC4CCN(Cc5ccc(-c6ccccc6)cc5)CC4)cc3CC2)cc1` (as salt: hydrochloride), which melting point is on record?
A: Its melting point is 220 to 225 °C (dec.).
